Experimental data: publication PMC11052718, “PMF-seq: a highly scalable screening strategy for linking genetics to mitochondrial bioenergetics” (Nature Metabolism, 2024)

What was measured:
human LDHD [1] = target: T1, human LDHD (Homo sapiens, UniProt Q86WU2); test: cytochrome c reduction, absorbance at […] nm; type: biochemical; conditions: 200 µM bovine heart cytochrome c as electron acceptor, 50 mM potassium phosphate pH 8.5; 10 mM substrate
T1 construct: ~50 kDa predicted, dimer by gel filtration
T1 sequence (Q86WU2 53-484 isoform Q86WU2-2): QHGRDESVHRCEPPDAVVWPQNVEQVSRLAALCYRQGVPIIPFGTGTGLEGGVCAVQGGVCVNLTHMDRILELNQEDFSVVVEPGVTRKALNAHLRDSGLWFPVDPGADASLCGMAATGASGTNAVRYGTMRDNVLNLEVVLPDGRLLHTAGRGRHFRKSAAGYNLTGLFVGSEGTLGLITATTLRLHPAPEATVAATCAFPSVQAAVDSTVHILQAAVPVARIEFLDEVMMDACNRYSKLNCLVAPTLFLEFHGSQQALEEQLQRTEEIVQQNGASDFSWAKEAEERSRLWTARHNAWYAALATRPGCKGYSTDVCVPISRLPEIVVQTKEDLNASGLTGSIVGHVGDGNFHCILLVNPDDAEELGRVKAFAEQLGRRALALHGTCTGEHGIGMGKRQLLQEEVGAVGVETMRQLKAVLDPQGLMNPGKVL

human LDHD [2] = target: T1, human LDHD; test: cytochrome c reduction, absorbance at […] nm; type: biochemical; conditions: 200 µM bovine heart cytochrome c as electron acceptor, 50 mM potassium phosphate pH 8.5
[3] = target: human D-lactate dehydrogenase (LDHD) isoform 2 (Komagataella phaffii | human); test: SEC; Superdex 200 10/300 GL, after elution from Talon cobalt resin; running buffer not stated

Q: Which “relative initial rate at 10 mM” value (human LDHD [1]) does the source give for CC[C@@H](O)C(=O)O [D-2-hydroxybutyrate] here?
A: Its value is “we identified D-2-hydroxybutyrate as another LDHD substrate that can be used to reduce cytochrome c”.

Q: For C[C@@H](O)C(=O)O [D-lactate], which Km (human LDHD [2]) is on record?
A: The Km was 112 µM.

Q: With “human D-lactate dehydrogenase (LDHD) isoform 2 (enzyme)” as the molecule, how does the stoichiometry N [3] read?
A: The stoichiometry N was 2.
